Like-named read-outs stand apart in the source and are kept apart here.
Key:
[1] = system: Escherichia coli NCTC 86; assay: Peroxynitrite effect on cell viability, viable colony count (Test 8(a)); type: cell-based; settings: E. coli; for IC50: Escherichia coli, NCTC86
Procedure: To obtain cells used in this test, the infective bacterial strain Escherichia coli NCTC 86 (E. coli) was cultured on nutrient agar at 37° until colony formation occurred, usually overnight. This stock culture was used for subsequent experiments including sub-culturing in nutrient broth and plated onto agar weekly. Experimental cultures of E. coli were set up overnight in nutrient broth from single colonies on an agar plate. Cells were harvested and counted using a standard curve of known absorbance at 470 nm against viable cell count. Peroxynitrite was generated by the method of Crow et al, Biochem. 34, p. 3544-3552 (1995). […] The concentration of ONOO^− formed was measured using an absorption coefficient of 1670 M^−1 cm^−1 in a spectrophotometer at a wavelength of 303 nm. Solutions of different concentrations for use in (a) below were obtained by dilution of the product solution using PBS. Cells cultured as described above were diluted to suitable working concentrations (10^4-10^5 Cells Ml^−1) in sterile phosphate buffered saline (PBS). ONOO^− at a range of concentrations from […] to 0.01 μm was added as a bolus dose to cells and incubated at room temperature for ten minutes. Aliquots were taken from the cell cultures and plated on to nutrient agar and incubated in a warm room at 37° C. overnight. Viable cells formed colonies on the agar and were counted. The number of colonies formed was related to an untreated control and a graph of the results is shown in FIG. 1, which illustrates the effect of ONOO^− on cell viability.

[2] = system: contaminants of semi-skimmed bovine milk (postulated Lactobacilli sp.); assay: Peroxynitrite addition to semi-skimmed bovine milk, colony forming units (Test 8(b)); type: cell-based; settings: 4° C., four days
Procedure: Commercially produced bovine milk was purchased in semi-skimmed form. Aliquots were taken on day one of experimentation and plated onto nutrient agar and grown overnight at 37° C. The number of colonies formed following incubation was counted. The remaining milk was divided into three portions after removal of those aliquots. No peroxynitrite was added to the first portion, which was the control. A single bolus dose of 100 μM ONOO^− was added to the second portion on day one, and the third portion was treated by addition of a daily bolus dose of 100 μM ONOO^−. The portions were stored during the four days of the test at a temperature of 4° C. Each day, aliquots were taken from each portion and cultured overnight at 37° C. for viable count determination. […] Although the contaminants were not formally identified, it was postulated that they included at least Lactobacilli sp., that being a cell type often present in milk.

[3] = system: Lactobacillus casei 6375; assay: Bacterial growth rate by optical density, 96 well plate (Tests 8(f), 8(g)); type: cell-based; settings: Lacticaseibacillus casei, 6375; Lactobacillus casei; bolus at beginning of logarithmic growth; read-out: Half maximal concentration ONOO -
Procedure: (§1) Bacteria were seeded into nutrient broth (NB) and grown over night at 37° C. The culture was then counted and normalised to give a final cell concentration of 1.8×10^7 cells well^−1 into the wells of a 96 well plate in fresh nutrient broth. The optical density of each well was monitored every 15 minutes as a measure of the growth rate of each bacterial species. Growth curves were generated for each species and the maximal rate of growth (logarithmic phase) was measured. Cells were treated to a range of experimental conditions in which the growth rate of cells was related to a control of untreated cells. The results were expressed as a percentage of the growth rate of the control cells.
(§2) (i) At a fixed concentration of hypoxanthine (100 μM) a range of purified XO protein concentrations were added at time 0 minutes. The optical density was followed and the growth rate calculated.
(§3) (ii) The growth rate was also measured in relation to the concentration of hypoxanthine, using 30 μg of XO with cells seeded as described above.
(§4) (iv) The effect of XO hypoxanthine addition was measured on the growth rate of a range of bacterial species with 30 […] XO at varying hypoxanthine concentrations using cells seeded as described above.

[4] = system: Staphylococcus aureus 6751; assay: as above; type: cell-based
Procedure: as §1, §2, §3, §4

[5] = system: E. coli; assay: Peroxynitrite scavenger and XO systems on bacterial growth curves in nutrient broth (Test 8(d)); type: cell-based
Procedure: E. coli were seeded into nutrient broth at 2.10^7 cell ml^−1 and incubated at 37° C. under atmospheric air conditions (that is, 21% oxygen saturation). Four separate test samples of volume 1 ml were prepared by addition at 1 hour of incubation as follows:
1 Peroxynitrite at concentration 100 μM.
2 Peroxynitrite at 100 μM and quercetin (peroxynitrite scavenger) at 100 μM.
3 Xanthine oxidase (53.2 μg) and xanthine at 100 μM.
4 Xanthine oxidase (53.2 μg) and NADH at 100 μM.
Corresponding controls were also prepared, and the growth curves generated over time determined by monitoring absorbance.

[6] = system: S. enteritidis; assay: Peroxynitrite effect on cell viability (Test 8(a)); type: cell-based; settings: Salmonella enterica
Procedure: Cells cultured as described above were diluted to suitable working concentrations (10^4-10^5 Cells Ml^−1) in sterile phosphate buffered saline (PBS). ONOO^− at a range of concentrations from […] to 0.01 μm was added as a bolus dose to cells and incubated at room temperature for ten minutes. Aliquots were taken from the cell cultures and plated on to nutrient agar and incubated in a warm room at 37° C. overnight. Viable cells formed colonies on the agar and were counted. The number of colonies formed was related to an untreated control and a graph of the results is shown in FIG. 1, which illustrates the effect of ONOO^− on cell viability.

[7] = system: nitric oxide (NO) release; assay: NO release from pure bovine xanthine oxidase with nitrite and NADH under hypoxia (Tests 1-3); type: biochemical
Procedure: The production of nitric oxide in the following tests and examples was analysed using an ozone chemiluminescence assay in a continuous flow apparatus (Sievers NOA 280) that allows the real time analysis of NO production. The apparatus was modified to allow a constant stream of nitrogen to flow into the reaction chamber. Chemiluminescence data were collected by a data acquisition system; the mean NO produced in parts per billion (ppb) was calculated from readings taken every second and shown as ppb or mV.
Progress curves, of molar production of NO against time, were calculated by taking into account the gas flow and the mean level of NO. Molar production of NO was expressed as ppb/sec or mV/sec. Reactions were carried out in a final volume of 1 ml at 37° C. in an atmosphere of <1% oxygen (Stathkelvin combination needle oxygen electrode, Diamond General Corp.).
The release of nitric oxide (NO) from a composition including pure bovine xanthine oxidase under hypoxia conditions was studied. The samples studied comprised reduced β-Nicotinamide adenine dinucleotide (NADH) and nitrite (NO2^−) and pure bovine xanthine oxidase.
Bovine xanthine oxidase was diluted with PBS as indicated in Table 1 below to give 300 μl of enzyme mixture. The enzyme mixture (300 μl) was mixed with 700 μl of a substrate mixture to give an assay volume of 1 ml. The substrate mixture comprised nitrite which was added to the assay to give a concentration of 1 mM and NADH which was added to give a concentration of 0.3 mM. Where, for example in Tests 2 to 4 below, additional components are added to the sample, the amount of PBS is adjusted accordingly to give an assay volume of 1 ml. The sample was placed in the reaction vessel of the NO determination apparatus under a nitrogen atmosphere and the generation of NO was measured and the results calculated as a steady state rate in mV/s.
Using the method described above in respect of Test 1, the effect of the variation in the concentration of NADH on the production of NO was investigated. 4 mM NADH was diluted with PBS to give the relevant concentration.
Using the method described above in respect of Test 1, the effect of the variation in the concentration of nitrite on the production of NO was investigated. As for Test 1, the concentration of NADH was 0.3 mM. 1M nitrite (or 100 mM nitrite, where appropriate for low concentrations) was diluted with PBS to give the relevant concentration.

[8] = system: S. enteritidis; assay: Xanthine oxidase derived species on cell viability at a range of oxygen concentrations (Test 8(c)); type: cell-based
[9] = system: E. coli; assay: as above; type: cell-based
Procedure: E. coli were cultured as described above. Aliquots were taken and incubated with a reaction system consisting of bovine Xanthine oxidase (XO) (53.2 μgml^−1), nicotinamide adenine dinucleotide in reduced form (NADH) (300 μM), sodium nitrite, (NaNO2) 1 mM and oxygen at a range of concentrations. Desired oxygen concentrations were generated by delivery into the system of a mixture of oxygen and nitrogen in appropriate proportions and determined using a Clark-type O2 electrode. This reaction was followed at 37° C. for 30 min with mixing before an aliquot was taken and plated onto agar and incubated in a warm room at 37° C. Viable cells formed colonies on the agar and were counted. Viable cell counts were performed in triplicate and the results expressed as a percentage viable count in each case related to a non enzyme control of the same oxygen concentration. […] The range of oxygen tensions used covers those in which XO has previously been considered to be active, namely superoxide generation (21% O2 saturation) and nitric oxide production (0% O2 saturation). A certain amount of killing is seen at both of these extremes as compared with control samples. However, it is only at an intermediate oxygen concentration that the greatest amount of killing is observed. […] Corresponding data obtained in respect of S. enteritidis indicated a peak killing oxygen concentration of 0% for that cell type.
Replacement of NADH in the above method by 100 μM hypoxanthine, with a sodium nitrite concentration of 2.5 μM led to slightly higher peak killing oxygen concentrations (6.4% for E. coli and 1.5% for S. enteritidis).

## O=NOO [Peroxynitrite]
[1]; range of concentrations, ten minutes
  effect on cell viability (viable count, FIG. 1): profound inhibitory effect
[1]; bolus dose, ten minutes at room temperature in PBS, read-out: IC50 (concentration that reduces viability to 50% of control viable count)
  IC50: 1.4 µM
[1]; value matches Test 8(a) viability IC50, read-out: Half maximal concentration ONOO -
  IC50: 1.4 µM
[2]; daily bolus dose of 100 μM, p<=0.01, also below single dose p<=0.05
  colony forming units (CFU) in milk compared to control: reduced the CFU significantly below control
[2]; single bolus dose of 100 μM on day one, p<=0.01
  colony forming units (CFU) in milk compared to control: reduced the CFU significantly
[3]
  IC50: 55 µM
[4]; 6751, Staphylococcus aureus, bolus at beginning of logarithmic growth, read-out: Half maximal concentration ONOO -
  IC50: 290 µM
[5]; 100 μM added at 1 hour, 21% oxygen saturation
  killing (growth curve): strong killing
[6]; S. enteritidis, similar conditions, read-out: IC50 (concentration that reduces viability to 50% of control viable count)
  IC50: 2.03 µM
[6]; Salmonella enteritidis, value matches Test 8(a) viability IC50, read-out: Half maximal concentration ONOO -
  IC50: 2 µM

## O=c1c(O)c(-c2ccc(O)c(O)c2)oc2cc(O)cc(O)c12 [quercetin]
[5]; 100 μM with peroxynitrite 100 μM
  effect on peroxynitrite killing: clear effect in reducing killing

## xanthine oxidoreductase [XOR]
[7]; XOR 21.4 μg, nitrite 0 mM, NADH 0.3 mM
  NO release: 0.00 mV/s
[7]; XOR 21.4 μg, nitrite 1 mM, NADH 0.3 mM
  NO release: 53.75 mV/s
[7]; XOR 21.4 μg, nitrite 5 mM, NADH 0.3 mM
  NO release: 184.8 mV/s
[7]; XOR 21.4 μg, nitrite 10 mM, NADH 0.3 mM
  NO release: 378.10 mV/s
[7]; XOR 21.4 μg, nitrite 25 mM, NADH 0.3 mM
  NO release: 407.55 mV/s
[7]; XOR 21.4 μg, nitrite 50 mM, NADH 0.3 mM
  NO release: 474.05 mV/s
[7]; XOR 53.5 μg, NADH 0.00 mM
  NO release: 0.00 mV/s
[7]; XOR 53.5 μg, NADH 0.10 mM
  NO release: 30.45 mV/s
[7]; XOR 53.5 μg, NADH 0.25 mM
  NO release: 66.80 mV/s
[7]; XOR 53.5 μg, NADH 0.50 mM
  NO release: 92.55 mV/s
[7]; XOR 53.5 μg, NADH 1.00 mM
  NO release: 103.35 mV/s
[7]; XOR 53.5 μg, NADH 2.00 mM
  NO release: 109.20 mV/s
[7]; XOR 107.0 μg, NADH 0.00 mM
  NO release: 0.00 mV/s
[7]; XOR 107.0 μg, NADH 0.10 mM
  NO release: 74.45 mV/s
[7]; XOR 107.0 μg, NADH 0.25 mM
  NO release: 142.70 mV/s
[7]; XOR 107.0 μg, NADH 0.50 mM
  NO release: 192.65 mV/s
[7]; XOR 107.0 μg, NADH 1.00 mM
  NO release: 230.05 mV/s
[7]; XOR 107.0 μg, NADH 2.00 mM
  NO release: 264.65 mV/s
[7]; XOR protein in assay 21.4 μg, 1 mM nitrite, 0.3 mM NADH
  NO release: 50.05 mV/s
[7]; XOR protein in assay 53.5 μg, 1 mM nitrite, 0.3 mM NADH
  NO release: 76.35 mV/s
[7]; XOR protein in assay 107.0 μg, 1 mM nitrite, 0.3 mM NADH
  NO release: 128.55 mV/s
[7]; XOR protein in assay 160.5 μg, 1 mM nitrite, 0.3 mM NADH
  NO release: 187.20 mV/s
[7]; XOR protein in assay 214.0 μg, 1 mM nitrite, 0.3 mM NADH
  NO release: 225.75 mV/s
[7]; hypoxic conditions
  optimum pH for the production of NO under the hypoxic conditions: ~5.5
[8]
  killing above about 8% oxygen: little or no killing
[8]; XO, NADH, NaNO2
  peak killing oxygen concentration: 0%
[8]; oxygen concentration about 21%
  killing: about 10%
[4]; Staphylococcus, hypoxanthine 100 μM, range of XO concentrations
  growth inhibition: less marked growth inhibition
[9]; E. coli
  killing above about 8% oxygen: little or no killing
[9]; E. coli, XO 53.2 μg/ml, NADH 300 μM, NaNO2 1 mM, 37° C., 30 min
  oxygen concentration of most effective killing: approximately 3 % of saturation
[9]; E. coli, oxygen concentration about 21%
  killing: about 5%

## O=c1[nH]c(=O)c2[nH]cnc2[nH]1 [xanthine]
[9]; XO system, cell type not specified
  killing using xanthine instead of hypoxanthine: More limited killing
